Results taken from ChEMBL document CHEMBL1629593 (Antimicrob Agents Chemother, 2009).
The source made the active and inactive calls. The rule behind the calls is not given here.

Legend:
[1] = tested on: Staphylococcus aureus; test: fCmin in heterogeneous vancomycin-intermediate Staphylococcus aureus 1629 infected in vivo pharmacodynamic model at 1750 mg treated every 12 hrs; type: ADME, organism-based
[2] = tested on: Staphylococcus aureus; test: fCmin in heterogeneous vancomycin-intermediate Staphylococcus aureus Mu3 infected […] pharmacodynamic model at 2000 mg treated every 12 hrs; type: ADME, organism-based
[3] = tested on: Staphylococcus aureus; test: fCmin in heterogeneous vancomycin-intermediate Staphylococcus aureus Mu3 infected […] pharmacodynamic model at 1000 mg treated every 12 hrs; type: ADME, organism-based
[4] = tested on: Staphylococcus aureus; test: Antibacterial activity against multidrug-resistant Staphylococcus aureus 3286 infected in in vitro pharmacodynamic model at 1000 to 2000 mg treated every 12 hrs using 10^6 CFU/ml inoculum by time-kill analysis; type: functional, organism-based
[5] = tested on: Staphylococcus aureus; test: Antibacterial activity against multidrug-resistant Staphylococcus aureus 3286 infected in […] pharmacodynamic model at 2000 mg treated every 12 hrs measured after 48 hrs post dose; type: functional
[6] = tested on: Staphylococcus aureus; test: fCmin in heterogeneous vancomycin-intermediate Staphylococcus aureus Mu3 infected in vivo pharmacodynamic model at 1500 mg treated every 12 hrs; type: ADME, organism-based
[7] = Ratio of fAUC in […] pharmacodynamic model to MIC for multidrug-resistant Staphylococcus aureus; type: functional
[8] = tested on: Staphylococcus aureus; test: Antibacterial activity against heterogeneous vancomycin-intermediate Staphylococcus aureus Mu3 infected in […] pharmacodynamic model at 2500 mg treated every 12 hrs measured after 48 hrs post dose; type: functional
[9] = tested on: Staphylococcus aureus; test: fCmin in heterogeneous vancomycin-intermediate Staphylococcus aureus Mu3 infected in vivo pharmacodynamic model at 700 mg treated every 12 hrs; type: ADME, organism-based
[10] = Ratio of fAUC in […] pharmacodynamic model to MIC for heterogeneous vancomycin-intermediate Staphylococcus aureus 1629 at 2000 mg treated every 12 hrs; type: functional
[11] = tested on: Staphylococcus aureus; test: fCmin in heterogeneous vancomycin-intermediate Staphylococcus aureus 1629 infected in vivo pharmacodynamic model at 750 mg treated every 12 hrs; type: ADME, organism-based
[12] = tested on: Staphylococcus aureus; test: Antibacterial activity against multidrug-resistant Staphylococcus aureus 3286 infected in […] pharmacodynamic model at 4000 mg treated every 12 hrs measured after 72 hrs post dose; type: functional
[13] = tested on: Staphylococcus aureus; test: fCmin in multidrug-resistant Staphylococcus aureus 3286 infected in vivo pharmacodynamic model at 2000 mg treated every 12 hrs; type: ADME, organism-based
[14] = tested on: Staphylococcus aureus; test: fCmin in heterogeneous vancomycin-intermediate Staphylococcus aureus 1629 infected in vivo pharmacodynamic model at 2000 mg treated every 12 hrs; type: ADME, organism-based
[15] = Ratio of fAUC in […] pharmacodynamic model to MIC for heterogeneous vancomycin-intermediate Staphylococcus aureus 1629 at 4000 mg treated every 12 hrs; type: functional
[16] = Ratio of fAUC in […] pharmacodynamic model to MIC for multidrug-resistant Staphylococcus aureus 3286 at 1500 mg treated every 12 hrs; type: functional
[17] = Ratio of fAUC in […] pharmacodynamic model to MIC for heterogeneous vancomycin-intermediate Staphylococcus aureus Mu3 at 2500 mg treated every 12 hrs; type: functional
[18] = tested on: Staphylococcus aureus; test: fCmin in multidrug-resistant Staphylococcus aureus 3286 infected […] pharmacodynamic model at 4000 mg treated every 12 hrs; type: ADME, organism-based
[19] = tested on: Staphylococcus aureus; test: fCmin in multidrug-resistant Staphylococcus aureus 3286 infected in vivo pharmacodynamic model at 1500 mg treated every 12 hrs; type: ADME, organism-based
[20] = tested on: Staphylococcus aureus; test: Antibacterial activity against heterogeneous vancomycin-intermediate Staphylococcus aureus Mu3 infected in […] pharmacodynamic model at 1500 mg treated every 12 hrs measured after 48 hrs post dose; type: functional
[21] = tested on: Staphylococcus aureus; test: fCmin in multidrug-resistant Staphylococcus aureus 3286 infected […] pharmacodynamic model at 1000 mg treated every 12 hrs; type: ADME, organism-based
[22] = tested on: Staphylococcus aureus; test: fCmin in heterogeneous vancomycin-intermediate Staphylococcus aureus 1629 infected […] pharmacodynamic model at 1000 mg treated every 12 hrs; type: ADME, organism-based
[23] = Ratio of fAUC in […] pharmacodynamic model to MIC for heterogeneous vancomycin-intermediate Staphylococcus aureus Mu3 at 1000 mg treated every 12 hrs; type: functional
[24] = tested on: Staphylococcus aureus; test: fCmin in heterogeneous vancomycin-intermediate Staphylococcus aureus 1629 infected in vivo pharmacodynamic model at 4000 mg treated every 12 hrs; type: ADME, organism-based
[25] = tested on: Staphylococcus aureus; test: Antibacterial activity against heterogeneous vancomycin-intermediate Staphylococcus aureus Mu3 infected in […] pharmacodynamic model at 1000 mg treated every 12 hrs measured after 24 hrs post dose; type: functional
[26] = Ratio of fAUC in […] pharmacodynamic model to MIC for heterogeneous vancomycin-intermediate Staphylococcus aureus Mu3 at 2000 mg treated every 12 hrs; type: functional
[27] = Ratio of fAUC in […] pharmacodynamic model to MIC for multidrug-resistant Staphylococcus aureus 3286 at 4000 mg treated every 12 hrs; type: functional
[28] = tested on: Staphylococcus aureus; test: fCmin in heterogeneous vancomycin-intermediate Staphylococcus aureus 1629 infected in vivo pharmacodynamic model at 1500 mg treated every 12 hrs; type: ADME, organism-based
[29] = Ratio of fAUC in […] pharmacodynamic model to MIC for heterogeneous vancomycin-intermediate Staphylococcus aureus Mu3 at 750 mg treated every 12 hrs; type: functional
[30] = tested on: Staphylococcus aureus; test: fCmin in heterogeneous vancomycin-intermediate Staphylococcus aureus Mu3 infected in vivo pharmacodynamic model at 5000 mg treated every 12 hrs; type: ADME, organism-based
[31] = tested on: Staphylococcus aureus; test: Antibacterial activity against heterogeneous vancomycin-intermediate Staphylococcus aureus 1629 infected in […] pharmacodynamic model at 700 mg treated every 12 hrs measured after 72 hrs post dose; type: functional
[32] = tested on: Staphylococcus aureus; test: Antibacterial activity against heterogeneous vancomycin-intermediate Staphylococcus aureus Mu3 infected in […] pharmacodynamic model at 1000 mg treated every 12 hrs measured after 48 hrs post dose; type: functional
[33] = tested on: Staphylococcus aureus; test: fCmin in heterogeneous vancomycin-intermediate Staphylococcus aureus Mu3 infected in vivo pharmacodynamic model at 2500 mg treated every 12 hrs; type: ADME, organism-based
[34] = Ratio of fAUC in […] pharmacodynamic model to MIC for multidrug-resistant Staphylococcus aureus 3286 at 1000 mg treated every 12 hrs; type: functional
[35] = tested on: Staphylococcus aureus; test: fCmin in heterogeneous vancomycin-intermediate Staphylococcus aureus Mu3 infected in vivo pharmacodynamic model at 2250 mg treated every 12 hrs; type: ADME, organism-based
[36] = Ratio of fAUC in […] pharmacodynamic model to MIC for heterogeneous vancomycin-intermediate Staphylococcus aureus 1629 at 750 mg treated every 12 hrs; type: functional
[37] = Ratio of fAUC in […] pharmacodynamic model to MIC for multidrug-resistant Staphylococcus aureus 3286 at 2000 mg treated every 12 hrs; type: functional
[38] = Ratio of fAUC in […] pharmacodynamic model to MIC for heterogeneous vancomycin-intermediate Staphylococcus aureus 1629 at 1000 mg treated every 12 hrs; type: functional
[39] = Ratio of fAUC in […] pharmacodynamic model to MIC for heterogeneous vancomycin-intermediate Staphylococcus aureus Mu3 at 2250 mg treated every 12 hrs; type: functional
[40] = Ratio of fAUC in […] pharmacodynamic model to MIC for heterogeneous vancomycin-intermediate Staphylococcus aureus Mu3 at 5000 mg treated every 12 hrs; type: functional
[41] = tested on: Staphylococcus aureus; test: Antibacterial activity against heterogeneous vancomycin-intermediate Staphylococcus aureus Mu3 infected in […] pharmacodynamic model at 2500 mg treated every 12 hrs measured after 24 hrs post dose; type: functional

**Q.** Which fCmin [1] does the source give for `CN[C@H](CC(C)C)C(=O)N[C@H]1C(=O)N[C@@H](CC(N)=O)C(=O)N[C@H]2C(=O)N[C@H]3C(=O)N[C@H](C(=O)N[C@H](C(=O)O)c4cc(O)cc(O)c4-c4cc3ccc4O)[C@H](O)c3ccc(c(Cl)c3)Oc3cc2cc(c3O[C@@H]2O[C@H](CO)[C@@H](O)[C@H](O)[C@H]2O[C@H]2C[C@](C)(N)[C@H](O)[C@H](C)O2)Oc2ccc(cc2Cl)[C@H]1O` [VANCOMYCIN] here?
**A.** The fCmin was 10 mg/L.

**Q.** And the fCmin [2]?
**A.** The fCmin was 11 mg/L.

**Q.** What about the fCmin [3] of the same compound?
**A.** The fCmin was 4 mg/L.

**Q.** What about the Activity [4] of the same compound?
**A.** The Activity was “Active”.

**Q.** And the CFU/ml [5]?
**A.** Its CFU/ml is 0.5.

**Q.** And the fCmin [6]?
**A.** The fCmin was 7 mg/L.

**Q.** And the fAUC/MIC [7]?
**A.** Its fAUC/MIC is “>=180”.

**Q.** And the CFU/ml [8]?
**A.** Its CFU/ml is 2.

**Q.** And the fCmin [9]?
**A.** Its fCmin is 3 mg/L.

**Q.** What about the fAUC/MIC [10] of the same compound?
**A.** Its fAUC/MIC is 271.

**Q.** What about the fCmin [11] of the same compound?
**A.** Its fCmin is 3 mg/L.

**Q.** And the CFU/ml [12]?
**A.** Its CFU/ml is 0.5.

**Q.** And the fCmin [13]?
**A.** The fCmin was 12 mg/L.

**Q.** What about the fCmin [14] of the same compound?
**A.** Its fCmin is 12 mg/L.

**Q.** What about the fAUC/MIC [15] of the same compound?
**A.** The fAUC/MIC was 644.

**Q.** What about the fAUC/MIC [16] of the same compound?
**A.** The fAUC/MIC was 992.

**Q.** And the fAUC/MIC [17]?
**A.** The fAUC/MIC was 374.

**Q.** And the fCmin [18]?
**A.** Its fCmin is 22 mg/L.

**Q.** What about the fCmin [19] of the same compound?
**A.** The fCmin was 7 mg/L.

**Q.** And the CFU/ml [20]?
**A.** Its CFU/ml is 3.

**Q.** And the fCmin [21]?
**A.** Its fCmin is 3 mg/L.

**Q.** And the fCmin [22]?
**A.** Its fCmin is 3 mg/L.

**Q.** What about the fAUC/MIC [23] of the same compound?
**A.** Its fAUC/MIC is 168.

**Q.** And the fCmin [24]?
**A.** Its fCmin is 22 mg/L.

**Q.** And the CFU/ml [25]?
**A.** The CFU/ml was 2.

**Q.** What about the fAUC/MIC [26] of the same compound?
**A.** The fAUC/MIC was 269.

**Q.** And the fAUC/MIC [27]?
**A.** Its fAUC/MIC is 2576.

**Q.** And the fCmin [28]?
**A.** The fCmin was 7 mg/L.

**Q.** What about the fAUC/MIC [29] of the same compound?
**A.** The fAUC/MIC was 105.

**Q.** And the fCmin [30]?
**A.** The fCmin was 26 mg/L.

**Q.** What about the CFU/ml [31] of the same compound?
**A.** Its CFU/ml is 3.

**Q.** And the CFU/ml [32]?
**A.** Its CFU/ml is 3.

**Q.** What about the fCmin [33] of the same compound?
**A.** Its fCmin is 16 mg/L.

**Q.** What about the fAUC/MIC [34] of the same compound?
**A.** The fAUC/MIC was 552.

**Q.** And the fCmin [35]?
**A.** Its fCmin is 12 mg/L.

**Q.** What about the fAUC/MIC [36] of the same compound?
**A.** The fAUC/MIC was 105.

**Q.** What about the fAUC/MIC [37] of the same compound?
**A.** The fAUC/MIC was 1084.

**Q.** And the fAUC/MIC [38]?
**A.** The fAUC/MIC was 138.

**Q.** And the fAUC/MIC [39]?
**A.** The fAUC/MIC was 317.

**Q.** What about the fAUC/MIC [40] of the same compound?
**A.** The fAUC/MIC was 799.

**Q.** And the CFU/ml [41]?
**A.** The CFU/ml was 2.
